# Experimental data: PubChem BioAssay AID493250 (Broad Institute, 2011)
# Activity calls are given as the source filed them.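 Rule for the calls: active = signal decrease with fitted half-maximal dose at or below ten times the highest valid tested dose; inconclusive = poor fit, or flat fit at 30 to 70% inhibition; inactive = the rest.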
# Molecular target: Zinc finger protein mex-5 (Caenorhabditis elegans) (UniProt Q9XUB2)
# Test: MEX-5 zinc finger-RNA interaction blockers – biochemical, fluorescence polarization, C. elegans, cherry-picked, round 3, dose response (AID 493250)
# Conditions: purified MEX-5-MBP, FITC-TCR2 RNA fluorescence polarization
# Sequence of Zinc finger protein mex-5 (Caenorhabditis elegans) (Q9XUB2 whole entry, looked up): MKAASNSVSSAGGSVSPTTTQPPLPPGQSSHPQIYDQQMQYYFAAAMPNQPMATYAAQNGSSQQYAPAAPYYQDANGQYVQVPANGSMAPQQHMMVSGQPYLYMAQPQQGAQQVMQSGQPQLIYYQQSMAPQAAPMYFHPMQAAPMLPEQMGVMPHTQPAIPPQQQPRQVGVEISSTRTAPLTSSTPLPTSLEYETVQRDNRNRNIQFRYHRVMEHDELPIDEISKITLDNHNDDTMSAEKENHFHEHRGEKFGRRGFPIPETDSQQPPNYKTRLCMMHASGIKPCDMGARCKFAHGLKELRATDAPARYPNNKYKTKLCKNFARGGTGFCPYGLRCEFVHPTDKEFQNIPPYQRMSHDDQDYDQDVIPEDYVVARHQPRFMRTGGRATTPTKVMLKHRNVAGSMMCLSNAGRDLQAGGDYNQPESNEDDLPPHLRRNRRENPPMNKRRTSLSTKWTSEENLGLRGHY
row,SMILES,AC50
1,COc1ccccc1/C=C1\SC(=S)N(CCC(=O)Nc2cc(C)on2)C1=O,> 10 µM (inactive)
2,CCCOc1cc(N(CC)CC)ccc1/C=C(/C#N)c1nc2ccc(C)cc2[nH]1,6.33 µM
3,Cc1cccc2c(N=Nc3ccccc3)c(O)[nH]c12,> 10 µM (inactive)
4,Nc1nc(Cl)nc2ccc(Br)cc12,> 10 µM (inactive)
5,CCC(=O)Oc1ccc2c(c1)O/C(=C\c1ccco1)C2=O,5.51 µM
6,CCOC(=O)/C(=C/c1ccc(N2CCC(c3ccccc3)=N2)cc1)C(C)=O,2.43 µM
7,CCN(CC)c1ccc(/C=C(/C#N)c2nc3ccc(C)cc3[nH]2)c(OC(C)C)c1,1.16 µM
8,CCS(=O)(=O)C1=NN2C(=N)/C(=C\c3ccc(SCc4ccco4)o3)C(=O)N=C2S1,10.4 µM

# Same assay, conditions: purified MEX-5-MBP, FITC-TCR2 RNA fluorescence polarization; at 10 µM (top of the series)
row,SMILES,"activity change, negative = inhibition"
1,NC(=O)c1cccc2cc3ccccc3cc12,inactive
2,Nc1ccc([N+](=O)[O-])cc1C(=O)NNC(=O)c1ccco1,inactive
3,CC(=O)O[C@@H]1[C@@H](O)[C@@H](O)[C@H](Oc2c(-c3ccc(O)cc3)oc3c(CC=C(C)C)c(O)cc(O)c3c2=O)O[C@H]1C,inactive
4,FC(F)(F)c1nc2cc3nc4ccccc4[nH]c3cc2n1,inactive
5,O=C(NNC(=O)c1ccc([N+](=O)[O-])o1)c1ccccc1,inactive
6,Cc1cc(C)c[n+](-c2[nH]c(=O)sc2/C=N/N=C(\N)[S-])c1,inactive
7,O=C(NNC(=O)c1ccccc1[N+](=O)[O-])c1ccco1,inactive
8,CCNC(=S)NNC(=O)c1ccccn1,inactive
9,CCCOc1ccc([C@@H]2C3CN(C(=O)OCC)CC=C3C(C#N)=C(N)C2(C#N)C#N)cc1OC (stereo partly drawn),inactive
10,NS(=O)(=O)c1ccc(N=Nc2ccc(=O)[nH]c2O)cc1,inactive
11,COc1cc2c(cc1O)CC1c3c(cc(O)c(OC)c3-2)CCN1C (stereo not drawn),inactive
12,Oc1c(Cl)cc(Cl)c2c1NCCC2,inactive
13,O=c1nc(-c2ccccc2)c2cc(Br)ccc2[nH]1,inactive
14,O=C(O)c1ccccc1N=Nc1c(O)[nH]c2ccc([N+](=O)[O-])cc12,inactive
15,O=[N+]([O-])c1cc(S(=O)(=O)c2ccc(O)c([N+](=O)[O-])c2)ccc1O,inactive
16,Cc1ccc(-c2cc(C(=O)Nc3ccc(S(=O)(=O)Nc4ncccn4)cc3)[nH]n2)c(O)c1C,inactive
17,COC(=O)CCC(=O)NC(=S)Nc1sc(C)c(C)c1C(N)=O,inactive
18,COc1ccc(CCn2c(=N)c(C(=O)NCC3CCCO3)cc3c(=O)n4cccc(C)c4nc32)cc1 (stereo not drawn),inactive
19,CCCC(=O)Nc1ccc(NC(=O)c2cccs2)cn1,inactive
20,COc1cccc(NCc2cc(=O)oc3cc(C)c(C(C)C)cc23)c1,inactive

row,SMILES,"activity change, negative = inhibition"
1,CC(C)C(=O)OCC(=O)Nc1ccc2c(c1)CCC2,inactive
2,O=C(O)c1ccc(NCc2cccnc2)cc1,inactive
3,C[C@H](O)CC1=C[C@H](O)[C@@H](C)OC1=O,inactive
4,CNC(=O)c1c(NC(=O)c2nc3ccccc3s2)sc2c1CCC2,inactive
5,C=CCn1c(O)c(N=NC(=O)CNC(=O)/C=C/c2ccco2)c2ccccc21,inactive
6,COc1ccc(-c2csc(Nc3ccc(S(N)(=O)=O)cc3)n2)cc1OC,inactive
7,CC1=C(C(=O)OCc2ccccc2)C(c2cccc([N+](=O)[O-])c2)NC(=O)N1C (stereo not drawn),inactive
8,Nc1c(C(=O)Nc2cccc(Cl)c2Cl)sc2nc(-c3cccnc3)ccc12,inactive
9,COc1ccc(/C=C/C(=O)c2cc(Cl)cc(Cl)c2O)c(OC)c1,inactive
10,CCOC(=O)C1CSc2[nH]c(=O)sc2C1c1ccccc1 (stereo not drawn),inactive
11,COc1ccc(/C=N/NC(=S)Nc2cccc(C(=O)O)c2)cc1,inactive
12,COc1cc(/C=C2\CCCc3c2nc2ccccc2c3C(=O)O)cc(OC)c1O,inactive
13,O=C(CSc1nnc(COc2ccccc2)o1)Nc1nccs1,inactive
14,O=C(O)c1cc(Oc2ccc(C(F)(F)F)cc2Cl)ccc1[N+](=O)[O-],inactive
15,Cc1nc2c3ccccc3nc(NNC(=O)CCC(=O)N3CCC(C)CC3)n2n1,inactive
16,COc1ccc(-c2cn[nH]c2-c2ccc(O)cc2O)cc1OC,inactive
17,O=c1[nH]cnc2c1C(c1ccccc1[N+](=O)[O-])c1c(nc[nH]c1=O)O2,inactive
18,O=C(O)c1ccc2cccnc2n1,inactive
19,COCCN1CCC(CNCc2cn(-c3cc(C)ccc3C)nc2-c2ccccc2)C1 (stereo not drawn),inactive
20,CC(=O)NNc1ncnc2ccccc12,inactive

row,SMILES,"activity change, negative = inhibition"
1,N=C1C(c2nc3ccccc3[nH]2)=C(O)CN1c1ccc(F)cc1,inactive
2,Cc1cccc(-n2c(N)c(-c3nc4ccccc4n3C)c3nc4ccccc4nc32)c1,inactive
3,Cc1nc2ccc(NC(=O)NC(=O)c3c(Cl)cccc3Cl)cc2o1,inactive
4,Cc1ccc(C(=O)NNc2ncnc3c2cnn3C)cc1,inactive
5,CC(=O)Nc1ccc(N=NC2C(=O)N(C(N)=S)N=C2C)cc1 (stereo not drawn),inactive
6,O=C(NC1CCSc2ccccc21)c1cccc(Br)c1 (stereo not drawn),inactive
7,CC1=CC2=NC(=O)/C(=C\c3ccc(-c4cccc(Cl)c4)o3)C(=N)N2O1,inactive
8,O=C(Nc1cccnc1)c1cccs1,inactive
9,O=C1N=C(N2C=CC(=C3C=CNC=C3)C=C2)/C(=C/N=NC(=O)c2ccccc2)S1,inactive
10,N#CCCn1c2ccccc2c2nc3ccccc3nc21,inactive
11,CCOc1ccccc1N=NC1C(=O)N(C(N)=S)N=C1C (stereo not drawn),inactive
12,CC(C)=CCc1c(O)cc(O)c2c(=O)c(O[C@@H]3O[C@@H](C)[C@H](O)[C@@H](O)[C@H]3O)c(-c3ccc(O)cc3)oc12,inactive
13,Cc1cccc(C(=O)NNc2ncnc3c2cnn3C)c1,inactive
14,CC1CN2C(c3ccc([N+](=O)[O-])cc3)=CSC2=N1 (stereo not drawn),inactive
15,NC(=S)N=Nc1c(O)[nH]c2ccccc12,inactive
16,O=C(NNC(=O)c1ccc(O)c(Cl)c1)c1cccc(S(=O)(=O)N2CCOCC2)c1,inactive
17,O=C(NNC(=O)c1ccccc1Cl)c1csc(N2CCOCC2)n1,inactive
18,Cc1cccc(C)c1NC(=O)/C(C#N)=C/c1cccs1,inactive
19,Cc1cc(=O)oc(C)c1C(=O)Nc1c(C)n(C)n(-c2ccccc2)c1=O,inactive
20,CCc1ccc(S(=O)(=O)Nc2ccc(O)c3c(=O)cc(-c4ccccc4Cl)oc23)cc1,inactive
